Legend:
Type in all cases: in vivo
corn [1] = test: Greenhouse study: GB alone or in combination with GA4, nine days; settings: GA4 120 mg/liter, GB 10,000 mg/liter; n = 7 plants
Procedure: (§1) In several of the following examples, corn was grown in greenhouse conditions, which are defined as follows. Seeds of a commercial hybrid variety were sown in Pro-Mix® BX (Pro-Mix is a registered trademark of Premier Horticulture Ltd.) with the addition of Osmocote (14-14-14) and gypsum in three-liter pots. Greenhouses were kept at 25±3° C. under a 16:8 hour photoperiod, with illumination at canopy level of ˜250 μmoles m^−2s^−1. Corn was typically fertigated with Peters 21-5-20+micronutrients, calcium ammonium nitrate and magnesium sulfate. Typical growth rates for corn under these conditions ranged from 4-5 cm/day.
(§2) In most greenhouse studies, spray applications were made. These applications were made in a track sprayer outfitted with a 4001E Teejet® nozzle (Teejet is available from and a registered trademark of Spraying Systems Co., Glendale Heights, Ill., USA) and applied at 40 psi. Although application volumes did vary between some studies, generally, 30 gallons/acre of spray solution was applied. Following spray applications, plants were returned to the greenhouse. Typically, experiments were blocked according to plant size, and a randomized complete block design (RCB) was used.
(§3) Synergy was determined using the following formula, in which a synergy factor is calculated by the Abbott method: % Cexp=A+B−(AB/100), here % Cexp is the expected efficacy and “in which A and B are the increase in growth (or resistance to stress) levels given by the single [plant growth regulators]. If the ratio between the experimentally observed efficacy of the mixture Cobs and the expected efficacy of the mixture is greater than 1, synergistic interactions are present in the mixture” (Gisi, Synergistic Interaction of Fungicides in Mixtures, The American Phytopathological Society, 86:11, 1273-1279, 1996).
In a greenhouse study, the effect of combining GB with GA4 was studied.

greenhouse-grown maize [2] = test: Greenhouse study: effect of GA3 dose +/- GB on growth, 7 and 14 days; settings: GA3 0 mg/liter, GB 10000 mg/liter
Procedure: as §1, §2, §3
In a separate study, the effect of one rate of GB on various doses of GA3 was studied.

greenhouse-grown maize [3] = test: Leaf chlorophyll by SPAD meter, GA3 dose +/- GB; settings: GA3 0 mg/liter, GB 10000 mg/liter; n = 8 plants
Procedure: In the same study, leaf chlorophyll was monitored by measurements with a SPAD meter (Minolta Model 502; Ramsey, N.J.). In this study, the chlorophyll level in the most recently fully-expanded leaf was measured at five different points and the results averaged.

corn [4] = test: Nutrient stress greenhouse study, GA3 and/or GB, 7 days; settings: GA3 120 mg/liter, GB 10,000 mg/liter; for Change in Height: n = 7 plants
Procedure: as §3
During rainy periods in March-May in the Midwestern United States, nitrogen fertilizer for corn is often limited due to a combination of leaching and mineralization. GB included with GA3 can help overcome the slow growth caused by low nutrients. In a greenhouse study in Long Grove, Ill. we evaluated the effect of GA3, GB and the combination under ‘normal nutrient’ and limited nutrient conditions.

potted corn plants [5] = test: Acute drought stress greenhouse study, potted corn, 7 and 14 days; settings: acute drought stressed; 120 ppm GA3, 3000 ppm GB; spray at V4
Procedure: In a separate acute drought stress greenhouse study conducted in Long Grove, Ill., corn plants were sprayed at V4 stage with solutions containing a non-ionic surfactant (0.25%, v/v) at 30 gallons of spray solution/acre and growth was determined by shoot height increase 7 and 14 days later. After treatment corn plants were not watered with the exception of one treatment of control (aqueous surfactant solution) that were watered as needed (well-watered control).

potted corn plants [6] = test: Chronic drought stress greenhouse study, potted corn, 14 days; settings: 20 Percent Volumetric Water Content, 120 mg/liter GA3, 3000 mg/liter GB, n = 5
Procedure: In drought stress studies, corn plants were sprayed at the V4 stage with solutions containing a non-ionic surfactant (0.25%, v/v) at 30 gallons of spray solution/acre and growth was determined by change in height from time of treatment or fresh and dry shoot weight measurements 14 days later.
In greenhouse drought stress studies, corn plants were treated and subsequently watered with an automated irrigation system that maintained the soil moisture in the pots at 45% or 20% volumetric water content (“VWC”). Plants set to 20% after treatment took about 4 days without the automated system adding water to those pots to reach 20% VWC and then the automated system added water as needed to maintain 20% VWC. Total soil moisture capacity was 45% VWC and 20% VWC represented drought stress conditions. This would be considered chronic stress, as a lower level of VWC was maintained throughout the experiment after treatment.

corn plants [7] = test: Greenhouse study: growth of corn after V3 spray with GA3 or GB, nine days; settings: non-stressed greenhouse; spray at V3; GA3 120 mg/liter, GB 3000 mg/liter; n = 7
Procedure: as §1, §2
In a greenhouse study conducted in Long Grove, Ill., corn plants were sprayed at V3 stage with solutions containing a non-ionic surfactant (0.25%, v/v) at 30 gallons of spray solution/acre and growth was followed for nine days.
as §3
Based on a conservative approach, synergy was determined to be present at ratios of ≥1.10. When grown under non-stressed conditions, GA3 growth was synergized by the addition of 3,000 mg/liter glycine betaine (“GB”), with a synergy factor of 1.65 for growth and 1.68 for growth rate while dry weight/plant was not synergistic with a synergy factor of 0.95.

corn plants [8] = test: Chilling stress study (10° C. for five days) after spray with GA3 or GB; settings: chilling stress at 10° C. for five days; GA3 120 mg/liter, GB 3000 mg/liter; n = 7 plants
Procedure: In stress studies, plants were subjected to various stresses. In cold stress studies, after spraying, plants were grown in the greenhouse for an additional 48 hours before being measured and moved to a CMP6050 CONVIRON® chamber kept at 10° C. (Conviron is a registered trademark of Controlled Environments Limited Corporation). Illumination was at ˜225 μMoles, and light:dark conditions were on a 12:12 hour photoperiod. After 120 hours of chilling, plants were removed from the cold, measured, and returned to the greenhouse for 48 hours prior to harvest.
as §3
In a greenhouse and growth room study conducted in Long Grove, Ill., corn plants of a commonly grown hybrid were subjected to the following stress regimen: at two days post-foliar application, plants were moved into a controlled environment chamber, where the temperature was maintained at 10° C. with a 12:12 hour photoperiod for five days. At the end of the chilling period, the corn was moved back to the greenhouse for two days before destructive harvest.

corn [9] = test: Greenhouse study: Gibberellins, (S)-ABA and Glycine betaine on corn growth; settings: GA3 or GA4 120 mg/liter, GB 10000 mg/liter, (S)-ABA 8.8 mg/liter
Procedure: as §1, §2
When gibberellins are combined with specific ratios of (S)-(+)-abscisic acid (“(S)-ABA”), a surprising enhancement of corn growth after application is often observed. The addition of GB to gibberellin+(S)-ABA spray combinations further increases the growth-promoting activity of the mixtures, as is shown in Table 6.

With `C[N+](C)(C)CC(=O)[O-]` [GB, Glycine betaine] as the compound, how does the “Dry Weight” value (corn [1]) read?
Its value is 7.47 g.

What about the “Growth Rate” value (corn [1]) of the same compound?
Its value is 6.1 cm/day.

What about the “Plant Growth over 9 days” value (corn [1]) of the same compound?
Its value is 55.2 cm.

And the “Growth Rate, 0-7 day(s)” value (greenhouse-grown maize [2])?
Its value is 2.51 cm/day.

What about the “Growth Rate, 0-14 day(s)” value (greenhouse-grown maize [2]) of the same compound?
The value was 6.23 cm/day.

What about the “Plant Growth over 14 days” value (greenhouse-grown maize [2]) of the same compound?
Its value is 43.6 cm.

What about the “Plant Growth over 7 days” value (greenhouse-grown maize [2]; n = 8 plants) of the same compound?
The value was 17.6 cm.

What about the “Chlorophyll (SPAD reading) 14 days” value (greenhouse-grown maize [3]) of the same compound?
The value was 34.0 SPAD reading.

And the “Dry Weight” value (corn [4]; Low Nutrients)?
The value was 2.79 g.

And the “Leaf Area (L1-L6)” value (corn [4]; Low Nutrients)?
Its value is 611.73 cm^2.

And the “Change in Height” value (corn [4]; Low Nutrients)?
Its value is 24.54 cm.

What about the “Dry Weight” value (corn [4]; Normal Nutrients) of the same compound?
The value was 3.25 g.

What about the “Leaf Area (L1-L6)” value (corn [4]; Normal Nutrients) of the same compound?
Its value is 656.76 cm^2.

And the “Change in Height” value (corn [4]; Normal Nutrients)?
Its value is 35.37 cm.

And the “Shoot Growth 7 days after treatment as Percent Increase as compared to Drought Stressed Control” value (potted corn plants [5])?
The value was 95.9%.

What about the “Shoot Growth 14 days after treatment as Percent Increase as compared to Drought Stressed Control” value (potted corn plants [5]) of the same compound?
Its value is 97.6%.

And the “Percent Dry Weight of Drought Stressed Control” value (potted corn plants [6])?
Its value is 94.33%.

What about the “Percent Fresh Weight of Drought Stressed Control” value (potted corn plants [6]) of the same compound?
Its value is 93.16%.

What about the “Dry Weight/Plant” value (corn plants [7]) of the same compound?
The value was 2.75 g.

What about the “Growth Rate” value (corn plants [7]) of the same compound?
Its value is 4.49 cm/day.

What about the “Growth over 9 days” value (corn plants [7]) of the same compound?
Its value is 40.4 cm.

And the “Growth Rate” value (corn plants [8])?
Its value is 2.16 cm/day.

What about the “Growth over 9 days” value (corn plants [8]) of the same compound?
Its value is 19.41 cm.

And the “Leaf Area of L1-L5” value (corn plants [8])?
Its value is 356.47 cm^2.

What does the source list for `C=C1C[C@]23C[C@H]1CC[C@H]2[C@@]12CC[C@H](O)[C@@](C)(C(=O)O1)[C@H]2[C@@H]3C(=O)O` [GA4, gibberellin A4]?
Dry Weight (corn [1]): 7.68 g; Growth Rate (corn [1]): 7.1 cm/day; Plant Growth over 9 days (corn [1]): 64.1 cm; 7 days Change in Height (corn [9]): 33.9 cm; 14 days Change in Height (corn [9]): 62.2 cm; Dry Weight (corn [9]): 8.1 g

From US10058097B2, “Methods to increase corn productivity” (Valent BioSciences Corporation, priority 2016, dated 2018)
